This note sets out measurements from ChEMBL document CHEMBL1130538, “Catalytic mechanism of KDO8P synthase: synthesis and evaluation of a putative reaction intermediate” (Bioorg Med Chem Lett, 1997).

Series [1] can be described thus: Half-life was determined at pD 7.0 and 25 degree Centigrade. Format: ADME. Particulars: pH 7.
Series [2] can be described thus: The inhibitory activity against KDO 8-P synthase was determined. Further details: species or system Escherichia coli.
Series [3] in a line: Half-life was determined at pD 7.0 and 37 degree Centigrade. Particulars: pH 7. Format: ADME.

Regarding `O=C(O)C1(OP(=O)(O)O)CC(O)C(O)C([C@H](O)COP(=O)(O)O)O1` (stereo partly drawn), the half-life in series [1] is 4.7 h; in series [3], 2.5 h. Besides, the Ki in series [2] came to 35 µM.

In general, half-life refers to how long it takes for the measured level to halve. Usually Ki stands for the dissociation constant of the complex between target and ligand, obtained from inhibition or displacement.
